Experimental data taken from patent US20050070544A1, “1,2,5,10-tetrahydropyridazino{4,5-b}quinoline-1,10-diones and their use for the treatment of pain” (AstraZeneca AB, priority 2000, published 2005).
Where a name gives a salt, the structure may show the parent alone.

Assays:
[1] = target: T1, NMDA receptor glycine site (Rattus norvegicus, UniProt P35439); test: Test A: Inhibition of binding of [3H]-MDL105,519
T1 construct: fresh brain tissue including cerebral cortex and hippocampus from male Sprague Dawley rats was homogenized; tissue Analytical Biological Services Inc; host or cells: rat brain membranes (cerebral cortex and hippocampus, male Sprague Dawley rats)
Protocol: Test A: Inhibition of Binding of [^3H]-MDL105,519:
Binding of compounds to the NMDA receptor glycine site may be assessed by measuring the ability of test compounds to inhibit the binding of tritiated MDL105,519 to brain membranes bearing the receptor.
Rat Brain Membranes: The rat brain membranes used in the experiments were obtained from Analytical Biological Services Inc., and were prepared substantially in accordance with the method of B. M. Baron et al., J. Pharmacol. Exp. Ther. 250, 162 (1989). Briefly, fresh brain tissue including cerebral cortex and hippocampus from male Sprague Dawley rats was homogenized in 0.32 M sucrose and centrifuged at low speed to separate cellular membranes from other cellular components. The membranes were then washed 3 times using deionized water, followed by treatment with 0.04% Triton X-100. Finally, membranes were washed six times in 50 mM Tris citrate buffer, pH 7.4, and frozen at −80° C. until use.
[^3]MDL105,519 (72 Ci/mmol) was purchased from Amersham. Cold MDL105,519 was purchased from Sigma/RBI. Binding assays were performed substantially in accordance with the protocol of B. M. Baron et al., J. Pharmacol. Exp. Ther. 279, 62 (1996), as follows. On the day of the experiment, brain membranes were thawed at room temperature and suspended in 50 mM tris acetate buffer, pH 7.4 (“TAB”). Seventy-five micro grams per milliliter protein (by using the BioRad dye) were used for competition binding. The experiments were carried out using 96-well plates. Membranes were incubated with […] of compounds of various concentrations and 1.2 nM [^3H]MDL105,519 for 30 minutes at room temperature in a total volume of 250 μL. Non specific binding was determined by using 100 μM of unlabeled MDL105,519. The unlabeled MDL105,519 and compounds were dissolved as 12.5 mM stock solutions in DMSO. Final DMSO concentration in each well was kept below 1%, which concentration was found not to alter the binding results. After incubation, unbound [^3H]MDL105,519 was removed by filtration onto GF/B Unifilter plates using a Packard harvester. Filters were washed four times with ice cold TAB (total of 1.2 mL buffer). The plates were dried overnight at room temperature and bound radioactivity was measured on a Packard TopCount after the addition of 45 μL per well of the MICROSCINT O.
Human Brain Membranes: Human brain membranes were obtained from Analytical Biological Services Inc., and assays were performed as described for rat membranes.
Data analysis: Data was analyzed using a Microsoft Excel spreadsheet and GraphPad Prizm software and potency of compounds is expressed as the Ki (nM).

Structure (SMILES)	Ki [1]	melting point
O=c1c2ccc(Cl)cc2[nH]c2c(O)nn(CC#Cc3ccc(Cl)nc3)c(=O)c12 [Ex. 6, 7-Chloro-2-[3-(6-chloro(3-pyridyl))prop-2-ynyl]-4-hydroxy-2,5-dihydropyridazino[4,5-b]quinoline-1,10-dione]	0.106 µM	
O=c1c2ccc(Cl)cc2[nH]c2c(O)nn(CC#Cc3ccccc3Cl)c(=O)c12 [Ex. 4, 7-Chloro-4-hydroxy-2-[3-(2-chlorophenyl)prop-2-ynyl]-1,2,5,10-tetrahydropyridazino[4.5-b]quinoline-1.10-dione]	0.113 µM	255 to 257 °C
O=c1c2ccc(Cl)cc2[nH]c2c(O)nn(CC#Cc3ccc(Cl)cc3)c(=O)c12 [Ex. 3, 7-Chloro-4-hydroxy-2-[3-(4-chlorophenyl)prop-2-ynyl]-1,2,5,10-tetrahydropyridazino[4,5-b]quinoline-1,10-dione]	0.0866 µM	251 to 252 °C

Results, then the molecule that gave them:

Ki [1]	melting point	Structure (SMILES)
0.0676 µM		O=c1c2ccc(Cl)cc2[nH]c2c(O)nn(CC#Cc3ccncc3)c(=O)c12 [Ex. 1, 7-Chloro-4-hydroxy-2-(3-(4-pyridyl)prop-2-ynyl)1,2,5,10-tetrahydropyridazino[4,5-b]quinoline-1,10-dione 1,3 methanesulfonate]
	238 to 241 °C	O=c1c2ccc(Cl)cc2[nH]c2c(O)nn(CC#Cc3ccncc3)c(=O)c12 (as salt: methanesulfonate) [Ex. 1, 7-Chloro-4-hydroxy-2-(3-(4-pyridyl)prop-2-ynyl)1,2,5,10-tetrahydropyridazino[4,5-b]quinoline-1,10-dione 1,3 methanesulfonate]
0.014 µM	227 to 229 °C	CS(=O)(=O)O.O=c1c2ccc(Cl)cc2[nH]c2c(O)nn(CC#Cc3cccnc3)c(=O)c12 [Ex. 5, 7-Chloro-4-hydroxy-2-(3-(3-pyridyl)prop-2-ynyl)-1,2,5,10-tetrahydropyridazino[4,5-b]quinoline-1,10-dione methanesulfonate]
0.00786 µM	220 to 222 °C	O=c1c2ccc(Cl)cc2[nH]c2c(O)nn(CC#Cc3cccc(Cl)c3)c(=O)c12 [Ex. 2, 7-Chloro-4-hydroxy-2-[3-(3-chlorophenyl)prop-2-ynyl]-1,2,5,10-tetrahydropyridazino[4,5-b]quinoline-1,10-dione]
